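Test compounds were applied to cells in 96-well plates for 48 hours at 5 doses. At the TGI there is no net growth.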
Legend:
Assay in all cases: inhibition of tumour cell growth, NCI panel, 48 h
[1] = system: HOP-62 NSCLC
[2] = system: OVCAR-5 ovarian
[3] = system: K-562 leukemia
[4] = system: IGROV1 ovarian
[5] = system: XF 498 CNS
[6] = system: MDA-N
[7] = system: M19-MEL melanoma
[8] = system: OVCAR-3 ovarian
[9] = system: SK-OV-3 ovarian
[10] = system: OVCAR-8 ovarian
[11] = system: M14 melanoma
[12] = system: DU-145 prostate
[13] = system: UACC-257 melanoma
[14] = system: A549 NSCLC
[15] = system: SK-MEL-2 melanoma
[16] = system: OVCAR-4 ovarian
[17] = system: RXF 393 renal
[18] = system: EKVX NSCLC
[19] = system: NCI/ADR-RES ovarian
[20] = system: NCI-H460 lung
[21] = system: HOP-92 NSCLC
[22] = system: UACC-62 melanoma
[23] = system: SN12C renal
[24] = system: DLD-1 colon
[25] = system: DMS 114 small cell lung
[26] = system: SF-295 CNS
[27] = system: SNB-19 CNS
[28] = system: HT29 colon
[29] = system: NCI-H522 lung
[30] = system: 786-0 renal
[31] = system: U251 CNS
[32] = system: SW-620 colon
[33] = system: SK-MEL-5 melanoma
[34] = system: PC-3 prostate
[35] = system: T-47D breast
[36] = system: MALME-3M melanoma
[37] = system: A498 renal
[38] = system: SR leukemia
[39] = system: SK-MEL-28 melanoma
[40] = system: UO-31 renal
[41] = system: HCC-2998 colon
[42] = system: KM12 colon
[43] = system: MCF7 breast
[44] = system: LXFL 529 NSCLC
[45] = system: SNB-75 CNS
[46] = system: MOLT-4 leukemia
[47] = system: HL-60(TB) leukemia
[48] = system: NCI-H23 lung
[49] = system: ACHN renal
[50] = system: HOP-18 NSCLC
[51] = system: SF-539 CNS
[52] = system: HCT-116 colon
[53] = system: NCI-H226 lung
[54] = system: CCRF-CEM leukemia
[55] = system: KM20L2 colon
[56] = system: HS 578T breast
[57] = system: BT-549 breast
[58] = system: TK-10 renal
[59] = system: LOX IMVI melanoma
[60] = system: DMS 273 small cell lung
[61] = system: CAKI-1 renal
[62] = system: COLO 205 colon
[63] = system: RXF-631 renal
[64] = system: RPMI-8226 leukemia
[65] = system: HCT-15 colon
[66] = system: SF-268 CNS
[67] = system: MDA-MB-435

For `CCOC(=O)NC(=O)c1cn(CCCOC(=O)CCCCCCCCC(=O)OCCCn2cc(C(=O)NC(=O)OCC)c(=O)n(C)c2=O)c(=O)n(C)c1=O`, the TGI [1] was greater than 96.6 µM, the TGI [2] was greater than 100 µM and the TGI [3] was greater than 100 µM. For the same molecule, the TGI [4] was greater than 100 µM, the TGI [5] was greater than 93.8 µM and the TGI [6] was greater than 100 µM. For the same molecule, the TGI [7] was greater than 100 µM, the TGI [8] was greater than 100 µM and the TGI [9] was greater than 100 µM. The TGI [10] was greater than 100 µM, the TGI [11] was greater than 100 µM and the TGI [12] was greater than 100 µM. It also gave a TGI [13] greater than 100 µM, a TGI [14] greater than 100 µM and a TGI [15] greater than 100 µM. The TGI [16] was greater than 100 µM, the TGI [17] was greater than 100 µM and the TGI [18] was greater than 100 µM. For the same molecule, the TGI [19] was greater than 100 µM, the TGI [20] was greater than 100 µM and the TGI [21] was greater than 100 µM. For the same molecule, the TGI [22] was greater than 100 µM, the TGI [23] was greater than 100 µM and the TGI [24] was greater than 100 µM. It also gave a TGI [25] greater than 100 µM, a TGI [26] greater than 100 µM and a TGI [27] greater than 100 µM. For the same molecule, the TGI [28] was greater than 100 µM, the TGI [29] was greater than 100 µM and the TGI [30] was greater than 100 µM. For the same molecule, the TGI [31] was greater than 100 µM, the TGI [32] was greater than 100 µM and the TGI [33] was greater than 100 µM. It also gave a TGI [34] greater than 100 µM, a TGI [35] greater than 100 µM and a TGI [36] greater than 100 µM. The TGI [37] was greater than 100 µM, the TGI [38] was greater than 100 µM and the TGI [39] was greater than 100 µM. For the same molecule, the TGI [40] was greater than 100 µM, the TGI [41] was greater than 100 µM and the TGI [42] was greater than 100 µM. The TGI [43] was greater than 100 µM, the TGI [44] was greater than 100 µM and the TGI [45] was greater than 77.8 µM. It also gave a TGI [46] greater than 100 µM, a TGI [47] greater than 100 µM and a TGI [48] greater than 100 µM. It also gave a TGI [49] greater than 100 µM, a TGI [50] greater than 100 µM and a TGI [51] greater than 100 µM. The TGI [52] was greater than 100 µM, the TGI [53] was greater than 100 µM and the TGI [54] was greater than 46.4 µM. It also gave a TGI [55] greater than 100 µM, a TGI [56] greater than 100 µM and a TGI [57] greater than 100 µM. It also gave a TGI [58] greater than 100 µM, a TGI [59] greater than 100 µM and a TGI [60] greater than 100 µM. It also gave a TGI [61] greater than 100 µM, a TGI [62] greater than 100 µM and a TGI [63] greater than 100 µM. The TGI [64] was greater than 100 µM, the TGI [65] was greater than 100 µM and the TGI [66] was greater than 100 µM. For the same molecule, the TGI [67] was greater than 100 µM.

Reference: PubChem BioAssay (NCI)
